Tests used:
KRAS G12C in H358 cells = target: T1, KRAS G12C in H358 cells (Homo sapiens, UniProt P01116, G12C); assay: H358 Cell Activity Assay (Raf-1 RBD capture of active Ras, MSD); type: cell-based; details: 6 hours treatment
T1 construct: endogenous in cells; host or cells: H358
Procedure: (§1) Compounds presented in the present invention lead to the accumulation of the GDP bound Ras upon treatment of human cancer cell line.
(§2) The accumulation of the GDP-bound KRAS G12C in cellular environment was measured based on the principle that KRAS G12C only binds to its downstream kinase; Raf-1 (MAP Kinase Kinase Kinase), when in its active-GTP bound state. In this state, Ras binded to a domain of Raf-1 kinase referred to as the Ras Binding Domain (RBD).
(§3) H358 cells were grown in RPMI 1640 medium (Gibco 11875) supplemented with 10% fetal bovine serum and 1% penicillin/streptomycin. Cells were seeded in 96-well tissue culture plates at a density of 40,000 cells/well and allowed to attach for 16-24 hours. Test compounds were prepared as a 10 mM stock in DMSO and serially diluted in 100% DMSO using a 3-fold dilution scheme. An intermediate 5× concentrated plate in complete growth medium was made and 25 μl/well was added to the 100 μl of cells for a final concentration of 0.1% DMSO. Each concentration of exemplary compound was tested in duplicate. The negative control wells were cells with control inhibitor at 10 μM, and the positive control wells were cells without drugs, DMSO only. Plates were incubated for 6 hours at 37° C., 5% CO2. Following treatment, cells were washed 3× with ice-cold PBS and 100 μl/well ice-cold 1× Assay/Lysis. Buffer with protease inhibitors was added (25 mM HEPES, pH 7.5, 150 mM NaCl, 1% NP-40, 10 mM MgCl2, 1 mM EDTA, 2% Glycerol). Following lysis samples were frozen at −80° C.
(§4) Raf-1 RBD (LJIC-1988A1) was diluted to 100 ng/well in PBS and 5 μl/well was spot coated onto MSD high bind SECTOR plates (L15XB). Plates were incubated at room temperature for 1 hour on an orbital shaker. Plates were washed with PBS/0.05% Tween-20 and 50 μl/well of thawed lysate samples were added, followed by 50 μl of 1% MSD Blocker A in PBS/0.05% Tween-20 (R93BA). Plates were incubated for 1 hour on an orbital shaker and washed with PBS/0.05% Tween-20. 25 μl/well of Anti-pan-Ras Antibody (Cell Biolabs 244003) diluted 1:3000 was added in 1% MSD Blocker A solution and plates were incubated for 1 hour on an orbital shaker and washed with PBS/0.05% Tween-20. SULFO-TAG goat anti-mouse secondary antibody (MSD R32AC) was diluted 1:500 in MSD Blocker A solution and added at 25 μL/well. Plates were incubated for 1 hour on an orbital shaker and washed with PBS/0.05% Tween-20. 150 μl/well of Read Buffer T (MSD R92TC) diluted 1:3 in H2O was added and plates were read on a Meso Scale Discovery Sector Imager S600.
(§5) KRAS signal was normalized to maximum inhibition and DMSO control values, and IC50 values were generated using a 4 parameter fit of the dose response curve. The decrease in IC50 reflects that the exemplary compound lead to a higher level of accumulation of GDP-bound KRAS G12C than another exemplary compounds at specific timepoint of treatment of cancer cell line.

[1] = target: T2, KRAS G12C in MiaPaCa2 cells (Homo sapiens, UniProt P01116, G12C); assay: MiaPaCa2 Cell Activity Assay (Raf-1 RBD capture of active Ras, MSD); type: cell-based; details: MIAPaCa-2 cells, 6 hours treatment; assay limit is 30.0 μM
T2 construct: endogenous in cells; host or cells: MiaPaCa2
Procedure: MiaPaCa2 Cell Activity Assay
as §1, §2
as §3, with “MiaPaCa2” for “H358”, “DMEM” for “RPMI 1640”, “11995)” for “11875)”
as §4, §5

[2] = target: T3, GDP-loaded kRas (1-169) G12C, C51S, C80L, C118S (Homo sapiens, UniProt P01116, C118S/C51S/C80L/G12C); assay: Mass Spectrometry Reactivity Assay (MSRA), covalent adduct with kRas G12C; type: binding; details: 0.5 h at room temperature; 5 μM KRas protein; typical final concentration of the compounds 10 μM
T3 construct: GDP-loaded kRas (1-169) G12C, C51S, C80L, C118S
Procedure: Mass Spectrometry Reactivity Assay (MSRA)
Compounds presented in the present invention covalently bind to kRas G12C using MSRA to detect a covalent adduct of the exemplary compound and kRas G12C. GDP-loaded kRas (1-169) G12C, C51S, C80L, C118S were diluted in the protein assay buffer 25 mM Hepes pH7.5, 200 mM NaCl, 5% glycerol to concentration of 5 μM and 20 μl of protein was transferred into 96-well plate. […] See K-Ras(G12C) inhibitors allosterically control GTP affinity and effector interactions; Ostrem J M, Peters U, Sos M L, Wells J A, Shokat K M; Nature. 2013, Nov. 28; 503(7477):548-51.
Exemplary compounds dissolved in DMSO were diluted 100-fold into solution containing 20 μl of 5 μM KRas protein in the 96-well plate to initiate the reaction. Mosquito (TPP Lab tech) liquid handling robot was used to add compounds to protein solution. Typical final concentration of the compounds was 10 μM. The plates were placed on a shaker for 1 min at RT, sealed and incubated at room temperature for specified time period. 5 μl of reaction mix was added to 10 μl of 0.2% formic acid stop solution and mixed well. Typical end points were 30, 120, 600 and 1440 min.
Data were collected using Waters Acquity H-class UPLC system/Xevo G2-XS TOF mass spectrometer. The protein was injected in their liquid phase onto a Bruker Microtrap protein column TR1/15109/03. The following buffers were used to set LC gradient: Buffer A: 0.2% formic acid H20; B: 0.2% formic acid CAN. The protein was eluted from the column using the following LC Gradient: 0-0.4 min, 10% B to 30% B; 0.4 min-2.4 min, to 90% B, 2.5 min, 10% B, 3 min, 10% B. Initial data analysis was performed using MaxEnt software right after data acquisition.
The standard auto processing function was used to define percentage of unmodified and modified kRas protein using MexEnt software right after data acquisition. The highest peak was defined as 100% while smaller peak as assigned the number defined by autoprocessing function. The percent of modification corresponding to modified with exemplary compound and unmodified KRas GDP-loaded kRas (1-169) G12C, C51S, C80L, C118S were exported to Xcel data analysis software.
The percent of modified protein at the defined concentration of exemplary compound was calculated using the following formula: % mod=Num of modified peak/Sum of modified+unmodified.

Compound | IC50 (KRAS G12C in H358 cells) [µM] | IC50 [1] [µM] | % Modification (0.5 h) [2] [%]
C=CC(=O)N1CCN(c2nc(OC[C@H]3CCCN3C)nc3c2C[C@@H](C)[C@H](c2c(C)ccc4[nH]ncc24)C3)CC1 (relative stereo) [Example C10, 1-{4-[(6R,7R)-rel-6-methyl-7-(5-methyl-1H-indazol-4-yl)-2-{[(2R)-1-methylpyrrolidin-2-yl]methoxy}-5,6,7,8-tetrahydroquinazolin-4-yl]piperazin-1-yl}prop-2-en-1-one] | 0.129 | 0.236 | 80
C=CC(=O)N1CCN(c2nc(OC[C@@H]3CCCN3C)nc3c2C[C@@H](C)[C@H](c2c(C)ccc4[nH]ncc24)C3)CC1 [Example C9, 1-{4-[(6R,7R)-6-methyl-7-(5-methyl-1H-indazol-4-yl)-2-{[(2S)-1-methylpyrrolidin-2-yl]methoxy}-5,6,7,8-tetrahydroquinazolin-4-yl]piperazin-1-yl}prop-2-en-1-one] | 0.27 | 0.382 | 74
C=CC(=O)N1CCN(c2nc(N3CC(N(C)C)C3)nc3c2C[C@@H](C)[C@H](c2c(Cl)ccc4[nH]ncc24)C3)CC1 (relative stereo) [Example F5, 1-(4-{(6R,7R)-rel-7-(5-chloro-1H-indazol-4-yl)-2-[3-(dimethylamino)azetidin-1-yl]-6-methyl-5,6,7,8-tetrahydroquinazolin-4-yl}piperazin-1-yl)prop-2-en-1-one] | 0.145 | 0.154 | 72
C=CC(=O)N1CCN(c2nc(OCCN(C)C)nc3c2C[C@@H](C)[C@H](c2c(Cl)c(C)cc4[nH]ncc24)C3)CC1 (relative stereo) [Example C8, 1-(4-{(6R,7R)-rel-7-(5-chloro-6-methyl-1H-indazol-4-yl)-2-[2-(dimethylamino)ethoxy]-6-methyl-5,6,7,8-tetrahydroquinazolin-4-yl}piperazin-1-yl)prop-2-en-1-one] | 0.116 | 0.14 | 65
C=CC(=O)N1CCN(c2nc(OCCCN(C)C)nc3c2C[C@@H](C)[C@H](c2c(Cl)c(C)cc4[nH]ncc24)C3)CC1 (relative stereo) [Example C7, 1-(4-{(6R,7R)-rel-7-(5-chloro-6-methyl-1H-indazol-4-yl)-2-[3-(dimethylamino)propoxy]-6-methyl-5,6,7,8-tetrahydroquinazolin-4-yl}piperazin-1-yl)prop-2-en-1-one] | 0.106 | 0.088 | 73
C=CC(=O)N1CCN(c2ncnc3c2C[C@@H](C)[C@H](c2c(C)ccc4[nH]ncc24)C3)CC1 [Example A5, 1-{4-[(6R,7R)-6-methyl-7-(5-methyl-1H-indazol-4-yl)-5,6,7,8-tetrahydroquinazolin-4-yl]piperazin-1-yl}prop-2-en-1-one] | 0.78 | 0.64 | 77

Next, values leading:

IC50 (KRAS G12C in H358 cells) [µM] | IC50 [1] [µM] | % Modification (0.5 h) [2] [%] | Compound
0.116 | 0.126 | 83 | C=CC(=O)N1CCN(c2nc(N3CC(N(C)C)C3)nc3c2C[C@@H](C)[C@H](c2c(Cl)c(C)cc4[nH]ncc24)C3)CC1 (relative stereo) [Example F6, 1-(4-{(6R,7R)-rel-7-(5-chloro-6-methyl-1H-indazol-4-yl)-2-[3-(dimethylamino)azetidin-1-yl]-6-methyl-5,6,7,8-tetrahydroquinazolin-4-yl}piperazin-1-yl)prop-2-en-1-one]
0.064 | 0.06 | 84 | C=CC(=O)N1CCN(c2nc(N3CC(N(C)C)C3)nc3c2C[C@@H](C)[C@H](c2c(Cl)c(C)cc4[nH]ncc24)C3)C[C@H]1C [Example F12, 1-[(2R)-4-{(6R,7R)-7-(5-chloro-6-methyl-1H-indazol-4-yl)-2-[3-(dimethylamino)azetidin-1-yl]-6-methyl-5,6,7,8-tetrahydroquinazolin-4-yl}-2-methylpiperazin-1-yl]prop-2-en-1-one]
0.36 | 0.429 | 59 | C=CC(=O)N1CCN(c2nc(N3CC(N(C)C)C3)nc3c2C[C@@H](C)[C@H](c2c(C)ccc4[nH]ncc24)C3)CC1 (relative stereo) [Example F1, 1-{4-[(6R,7R)-rel-2-[3-(dimethylamino)azetidin-1-yl]-6-methyl-7-(5-methyl-1H-indazol-4-yl)-5,6,7,8-tetrahydroquinazolin-4-yl]piperazin-1-yl}prop-2-en-1-one]
0.277 | 0.285 | 79 | C=CC(=O)N1CCN(c2nc(N3CC(N(C)C)C3)nc3c2C[C@@H](C)[C@H](c2c(C)ccc4[nH]ncc24)C3)CC1 (single isomer, unassigned) [Example F2]
0.062 | 0.108 | 82 | C=CC(=O)N1CCN(c2nc(N3CC(N(C)C)C3)nc3c2C[C@@H](C)[C@H](c2c(Cl)c(C)cc4[nH]ncc24)C3)CC1 [Example F7, 1-(4-{(6R,7R)-7-(5-chloro-6-methyl-1H-indazol-4-yl)-2-[3-(dimethylamino)azetidin-1-yl]-6-methyl-5,6,7,8-tetrahydroquinazolin-4-yl}piperazin-1-yl)prop-2-en-1-one]

Reference: patent US10590115B2, “Tetrahydroquinazoline derivatives useful as anticancer agents” (PFIZER INC., priority 2018, dated 2020)
